Measured values taken from PMC11435058, “Synthesis of New Thiazole-Privileged Chalcones as Tubulin Polymerization Inhibitors with Potential Anticancer Activities” (Pharmaceuticals, 2024).
Read-outs that look alike come from different tables or passages of the source.

Legend:
MDA-MB-231/ATCC = assay: NCI-60 anticancer screen (SRB; single dose and five doses); conditions: Homo sapiens, MDA-MB-231, 48 h, read-out: Growth Percentage
RXF 393 = assay: as above; conditions: Homo sapiens, RXF 393, 48 h, read-out: Growth Percentage
CCRF-CEM = assay: NCI-60 anticancer screen (SRB; single dose 10 μM and five doses); conditions: Homo sapiens, 48 h, read-out: Growth Percentage
DU-145 = assay: NCI-60 anticancer screen (SRB; single dose and five doses); conditions: Homo sapiens, DU-145, 48 h, read-out: Growth Percentage
SK-MEL-28 = assay: as above; conditions: Homo sapiens, SK-MEL-28, 48 h, read-out: Growth Percentage
A498 = assay: as above; conditions: Homo sapiens, A498, 48 h, read-out: Growth Percentage, A498; dose of 10 μM
SW-620 = assay: as above; conditions: Homo sapiens, SW-620, 48 h, read-out: Growth Percentage
NCI-H522 = assay: as above; conditions: Homo sapiens, NCI-H522, 48 h, read-out: Growth Percentage
MDA-MB-435 = assay: as above; conditions: Homo sapiens, MDA-MB-435, 48 h, read-out: Growth Percentage
SN12C = assay: as above; conditions: Homo sapiens, 48 h, read-out: Growth Percentage
PC-3 = assay: as above; conditions: Homo sapiens, PC-3, 48 h, read-out: Growth Percentage
K-562 = assay: as above; conditions: Homo sapiens, K562, 48 h, read-out: Growth Percentage
SR = assay: as above; conditions: Homo sapiens, 48 h, read-out: Growth Percentage
[1] = system: 60 human tumor cell lines panel; assay: NCI-60 anticancer screen, whole panel (means and ranges over the cell lines); type: cell-based; conditions: Homo sapiens, 48 h
SF-539 = assay: NCI-60 anticancer screen (SRB; single dose and five doses); conditions: Homo sapiens, SF-539, 48 h, read-out: Growth Percentage
ACHN = assay: as above; conditions: Homo sapiens, 48 h, read-out: Growth Percentage
SNB-75 = assay: as above; conditions: Homo sapiens, SNB-75, 48 h, read-out: Growth Percentage
HT29 = assay: as above; conditions: Homo sapiens, HT-29, 48 h, read-out: Growth Percentage
CAKI-1 = assay: as above; conditions: Homo sapiens, CAKI-1, 48 h, read-out: Growth Percentage
IGROV1 = assay: as above; conditions: Homo sapiens, IGROV-1, 48 h, read-out: Growth Percentage
HOP-92 = assay: as above; conditions: Homo sapiens, HOP-92, 48 h, read-out: Growth Percentage
KM12 = assay: as above; conditions: Homo sapiens, KM12, 48 h, read-out: Growth Percentage
HS 578T = assay: as above; conditions: Homo sapiens, 48 h, read-out: Growth Percentage
A549/ATCC = assay: as above; conditions: Homo sapiens, A549, 48 h, read-out: Growth Percentage
EKVX = assay: as above; conditions: Homo sapiens, 48 h, read-out: Growth Percentage
OVCAR-5 = assay: as above; conditions: Homo sapiens, OVCAR-5, 48 h, read-out: Growth Percentage
NCI/ADR-RES = assay: as above; conditions: Homo sapiens, 48 h, read-out: Growth Percentage
OVCAR-3 = assay: cells; conditions: Homo sapiens, OVCAR-3, 48 h, read-out: Growth Percentage
SK-OV-3 = assay: NCI-60 anticancer screen (SRB; single dose and five doses); conditions: Homo sapiens, SK-OV-3, 48 h, read-out: Growth Percentage
[2] = mean over the tested cell lines, dose of 10 μM, read-out: Mean growth percentage
[3] = range over the cell lines, dose of 10 μM, read-out: growth percentages against most of the tested cells (lowest to highest)
[4] = read-out: growth percentages against most of the tested cells (lowest to highest)

SMILES	activity at 10 µM (MDA-MB-231/ATCC) [%]	activity at 10 µM (RXF 393) [%]	activity at 10 µM (CCRF-CEM) [%]	activity at 10 µM (DU-145) [%]	activity at 10 µM (SK-MEL-28) [%]	activity at 10 µM (A498) [%]	activity at 10 µM (SW-620) [%]	activity at 10 µM (NCI-H522) [%]	activity at 10 µM (MDA-MB-435) [%]	activity at 10 µM (SN12C) [%]	activity at 10 µM (PC-3) [%]	activity at 10 µM (K-562) [%]	activity at 10 µM [1, 2] [%]	activity at 10 µM (SF-539) [%]	activity at 10 µM (ACHN) [%]	activity at 10 µM (CAKI-1) [%]	activity at 10 µM (KM12) [%]	activity at 10 µM (HS 578T) [%]	activity at 10 µM (A549/ATCC) [%]	activity at 10 µM (EKVX) [%]	other results
Cc1[nH]c(=S)sc1C(=O)/C=C/c1ccccc1 [2a, (E)-1-(4-Methyl-2-Thioxo-2,3-Dihydrothiazol-5-yl)-3-Phenylprop-2-En-1-One]	70	46.4	37.2	27.9	85.2	106	69.1	71.7	50.1	66.1	77.6	51	65	41.7	71.8	52.5	29	90.1	82.3	73.1	activity at 10 µM (SR): 32.4%; activity at 10 µM [1, 3]: 14.1 to 129%; activity at 10 µM (SNB-75): 92.7%; activity at 10 µM (HT29): 99.7%; activity at 10 µM (IGROV1): 81.8%; activity at 10 µM (HOP-92): 89.6%; activity at 10 µM (OVCAR-5): 129%; activity at 10 µM (NCI/ADR-RES): 64.8%; activity at 10 µM (OVCAR-3): 42.7%
COc1ccc(/C=C/C(=O)c2sc(=S)[nH]c2C)cc1 [2l, (E)-3-(4-Methoxyphenyl)-1-(4-Methyl-2-Thioxo-2,3-Dihydrothiazol-5-yl)Prop-2-En-1-One]	89.3	77.5	59	58.5	102	120	75.3	61.4	63.9	74.9	82.2	56.6	74.6	69.8	85.6	59	42.2	96.5	82.9	84.8	activity at 10 µM (SR): 43.7%; activity at 10 µM [1, 4]: 15.1 to 120%; activity at 10 µM (SNB-75): 98%; activity at 10 µM (HT29): 96.8%; activity at 10 µM (IGROV1): 89.1%; activity at 10 µM (HOP-92): 101%; activity at 10 µM (OVCAR-5): 145%; activity at 10 µM (NCI/ADR-RES): 76.4%; activity at 10 µM (OVCAR-3): 66.9%
COc1cccc(/C=C/C(=O)c2sc(=S)[nH]c2C)c1OC [2m, (E)-3-(2,3-Dimethoxyphenyl)-1-(4-Methyl-2-Thioxo-2,3-Dihydrothiazol-5-yl)Prop-2-En-1-One]	68.3	52.5	12.4	42	70	109	47.9	32.9	51.9	45	41.6	27.5	49.9	22.7	52.5	41.9	25.3	49.2	43.1	54.5	activity at 10 µM (SR): 5.15%; activity at 10 µM [1, 3]: 5.15 to 109%; activity at 10 µM (SNB-75): 50.4%; activity at 10 µM (SK-OV-3): 85.6%; activity at 10 µM (IGROV1): 73.9%; activity at 10 µM (HOP-92): 61.5%; activity at 10 µM (OVCAR-5): 81.7%; activity at 10 µM (NCI/ADR-RES): 30.9%; activity at 10 µM (OVCAR-3): 24.3%
COc1ccc(/C=C/C(=O)c2sc(=S)[nH]c2C)c(OC)c1 [2n, (E)-3-(2,4-Dimethoxyphenyl)-1-(4-Methyl-2-Thioxo-2,3-Dihydrothiazol-5-yl)Prop-2-En-1-One]	98.7	68.9	53.7	86.9	92.8	101	84.9	73.5	84.7	81	75.7	48.9	75.1	87.3	77	82.8	73.4	89.5	90	56.2	activity at 10 µM [1, 4]: 19.2 to 123%; activity at 10 µM (SK-OV-3): 101%; activity at 10 µM (HT29): 115%; activity at 10 µM (HOP-92): 103%; activity at 10 µM (OVCAR-5): 120%; activity at 10 µM (NCI/ADR-RES): 48%; activity at 10 µM (OVCAR-3): 91.2%
Cc1[nH]c(=S)sc1C(=O)/C=C/c1ccccc1Cl [2d, (E)-3-(2-Chlorophenyl)-1-(4-Methyl-2-Thioxo-2,3-Dihydrothiazol-5-yl)Prop-2-En-1-One]	101	93.8	46.8	76	101	116	82	90.1	80.8	80	71.8	47.4	79.4	93.6	93.4	68.5	63.8	92.8	87.6	35.6	activity at 10 µM (SR): 14.1%; activity at 10 µM [1, 3]: 14.1 to 116%; activity at 10 µM (SK-OV-3): 118%; activity at 10 µM (HT29): 122%; activity at 10 µM (IGROV1): 91.9%; activity at 10 µM (OVCAR-5): 116%; activity at 10 µM (NCI/ADR-RES): 88.8%; activity at 10 µM (OVCAR-3): 77.4%
Cc1[nH]c(=S)sc1C(=O)/C=C/c1cccc(F)c1 [2b, (E)-3-(3-Fluorophenyl)-1-(4-Methyl-2-Thioxo-2,3-Dihydrothiazol-5-yl)Prop-2-En-1-One]	67.4	23.2	15.4	12.9	93.7	106	20.9	63.9	35.9	32.1	54.7	22.8	47.5	6.17	56	37.7	11.9	79.8	76.4	68.6	activity at 10 µM (SR): 6.82%; activity at 10 µM [1, 4]: -22.7 to 106%; activity at 10 µM (SK-OV-3): 111%; activity at 10 µM (HT29): 47.1%; activity at 10 µM (IGROV1): 32.3%; activity at 10 µM (OVCAR-5): 88.2%; activity at 10 µM (NCI/ADR-RES): 10.8%; activity at 10 µM (OVCAR-3): -1.17%
